From patent US20080145886A1, “Assay for Cytochrome P450 Isoforms 3A4 and 3A5” (priority 2004, published 2008)

What was measured:
CYP3A4/5 [1] = test system: CYP3A4/5
Protocol: Cryopreserved human hepatocytes from two different donors were obtained from Tissue Transformation Technologies (Edison, N.J.). […] CYP3A4/5 enzyme activity was then determined as follows.
The incubation medium was then loaded onto individual wells of preconditioned 30 mg OASIS plates, which were washed two times with 200 μL of water. For each well, the flow-through was combined with the water washes and counted in a beta-counter after addition of scintillation fluid. 6-p-hydroxytestosterone was eluted from the OASIS plates with 1 mL of methanol, dried under N2, and reconstituted in 200 uL of 50% acetonitrile/water (50:50) containing 0.1% of formic acid. Aliquots were injected into an HPLC-MS/MS system for quantification of 6β-hydroxytestosterone. Quantification was based on comparison of peak areas with those of a standard curve that was treated and extracted exactly like unknown samples.

CYP3A4/5 [2] = molecular target: T1, CYP3A4/5 (Homo sapiens, UniProt P08684); settings: human hepatocytes, 200 μM testosterone, 10 μM ketoconazole, 1 hour
T1 sequence (P08684 2-503): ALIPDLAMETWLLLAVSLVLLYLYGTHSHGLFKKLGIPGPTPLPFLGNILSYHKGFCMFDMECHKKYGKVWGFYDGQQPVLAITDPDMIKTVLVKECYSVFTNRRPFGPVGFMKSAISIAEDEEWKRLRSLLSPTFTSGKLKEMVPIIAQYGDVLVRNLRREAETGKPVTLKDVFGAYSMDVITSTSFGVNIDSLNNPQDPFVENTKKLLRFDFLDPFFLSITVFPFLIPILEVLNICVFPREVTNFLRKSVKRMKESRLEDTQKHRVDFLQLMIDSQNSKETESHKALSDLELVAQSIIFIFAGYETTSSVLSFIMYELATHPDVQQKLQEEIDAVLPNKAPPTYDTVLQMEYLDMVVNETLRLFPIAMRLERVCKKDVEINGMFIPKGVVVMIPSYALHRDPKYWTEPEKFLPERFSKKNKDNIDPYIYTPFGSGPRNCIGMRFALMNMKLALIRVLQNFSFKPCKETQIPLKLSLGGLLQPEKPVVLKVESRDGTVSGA
Protocol: For each well, the flow-through was combined with the water washes and counted in a beta-counter after addition of scintillation fluid.
Aliquots were injected into an HPLC-MS/MS system for quantification of 6β-hydroxytestosterone. Quantification was based on comparison of peak areas with those of a standard curve that was treated and extracted exactly like unknown samples.

CYP3A4/5 [3] = molecular target: T1, CYP3A4/5; settings: HLM
CYP3A4/5 [4] = molecular target: T1, CYP3A4/5; settings: HLM; remark: listed apart in the source
CYP3A4/5 [5] = molecular target: T1, CYP3A4/5; test: in vitro; settings: pH 7.6; for IC50: microsomes
Protocol: Pooled HLM were obtained from Gentest Corp. (Woburn, Mass.). Inhibitors were added to the reaction mixture from stock solutions in DMSO, giving a final solvent concentration of 0.6% (v/v). No inhibitor controls contained an equivalent amount of vehicle. Following preincubation for 10 minutes at 37° C., reactions were started by addition of 1 mM NADPH and an NADPH regenerating system containing 5 mM glucose-6-phosphate, 3 mM MgCl2, and 1 U/mL glucose-6-phosphate dehydrogenase. Assays were conducted for 10 minutes at 37° C. and stopped by addition of HCl to a final concentration of 0.1 N. Plates were then centrifuged for 10 minutes in a microplate rotor and supernatants loaded into the wells of a preconditioned 30 mg OASIS 96-well HLB plate. OASIS HLB 96 well extraction plates containing 10 or 30 mg of OASIS sorbent and vacuum manifold were purchased from Waters Corp. Vacuum was applied and the void volume collected in the collection plate. Then, 200 μL of water was added, vacuum was applied again, and the wash was collected into the same plate. This step was repeated. Pooled void volume and water washes were transferred into scintillation vials and counted in a beta-scintillation counter. Alternatively, aliquots were counted in […] scintillation plates using a TOPCOUNT scintillation counter (Packard, Perkin Elmer, Boston, Mass.). For the calculation of enzyme activity, product counts were corrected by subtraction of counts obtained in control incubations performed in the absence of NADPH regenerating system.
Total radioactivity was 100,000 to 200,000 dpm, reaction volume was 100 μL, and solvent concentration (coming from inhibitor stock solutions) was 0.3-0.7% DMSO and 0.5% acetonitrile (v/v). […] Radioactivity was determined using a Beckman beta scintillation counter, or by counting 120 μL aliquots in 96-well scintillation plates using a TOPCOUNT scintillation counter. […]
Without using the known ^TV/K ratio (which would be tautological, since it was derived from SAP), v′, the apparent formation rate of unlabelled product, can be calculated. […]

CYP3A4 = CYP3A4 (Homo sapiens, UniProt P08684); settings: read-out: IC50 (Draper et al.); competitive substrate; cited from earlier work
Sequence of CYP3A4 (P08684 whole entry): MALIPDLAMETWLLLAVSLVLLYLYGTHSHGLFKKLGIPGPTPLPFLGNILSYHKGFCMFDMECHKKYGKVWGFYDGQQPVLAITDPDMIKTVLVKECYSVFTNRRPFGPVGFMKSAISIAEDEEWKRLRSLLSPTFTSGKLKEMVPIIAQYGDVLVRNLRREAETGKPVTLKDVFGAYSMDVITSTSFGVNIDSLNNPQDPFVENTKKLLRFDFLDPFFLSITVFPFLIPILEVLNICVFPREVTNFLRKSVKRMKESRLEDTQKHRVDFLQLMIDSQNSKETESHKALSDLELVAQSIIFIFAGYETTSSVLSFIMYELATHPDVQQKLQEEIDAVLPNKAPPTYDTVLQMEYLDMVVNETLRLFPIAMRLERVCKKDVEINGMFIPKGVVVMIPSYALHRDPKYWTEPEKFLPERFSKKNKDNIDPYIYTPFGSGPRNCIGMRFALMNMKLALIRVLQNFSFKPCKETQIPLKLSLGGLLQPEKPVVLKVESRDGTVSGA

CYP3A4/5 [6] = molecular target: T1, CYP3A4/5; test: in vitro; settings: microsomes
Protocol: Quantification of 6β-hydroxytestosterone and 2β-hydroxytestosterone. Aliquots of the assay reaction mixture and of metabolite standard curves were analyzed by HPLC using an Agilent HP1100 liquid chromatograph (Agilent Technologies) equipped with a CTC Analytics PAL autosampler (HTS PAL; CTC Analytics AG, Switzerland). Chromatography was performed on an XTERRA MS C18 column (4.6 mm×5 cm; 5 μm; Waters Corp.) at a flow rate of 1 mL/min, using a mobile phase consisting of a mixture of 0.1% formic acid in water (A) and 0.1% formic acid in acetonitrile (B) (linear gradient for 4 min from 5-100% B; 2 min at 100% B). The eluant was diverted to waste for the first minute, and then to a Sciex API-2000 triple quadrupole mass spectrometer with a Turbo Ionspray ionization source operated in the positive ion mode. […] Metabolite concentrations were determined by weighted linear least-squares regression analysis of peak area ratios vs. those of a standard curve, using Analyst Quantitation Wizard software version 1.4.

CC(=O)N1CCN(c2ccc(OCC3COC(Cn4ccnc4)(c4ccc(Cl)cc4Cl)O3)cc2)CC1 (stereo not shown) [Ketoconazole]
Inhibition of 6β-hydroxytestosterone formation in cultured hepatocytes (CYP3A4/5 [1]): almost completely inhibited
Inhibition of [^3H]-H2O formation in cultured hepatocytes (CYP3A4/5 [1]): almost completely inhibited
Formation rate of 6β-hydroxytestosterone (CYP3A4/5 [2]): Not detected

COC(=O)C1=C(C)NC(C)=C(C(=O)OCCN(C)Cc2ccccc2)C1c1cccc([N+](=O)[O-])c1 (stereo not shown) [Nicardipine]
n (Hill coefficient) Radiometric (CYP3A4/5 [3]): 2.5
n (Hill coefficient) LC-MS (CYP3A4/5 [4]): 2.7

Clc1ccc(COC(Cn2ccnc2)c2ccc(Cl)cc2Cl)c(Cl)c1 (stereo not shown) [Miconazole]
IC50 (CYP3A4/5 [5]): 60 ± 10 nM

C[C@]12CC[C@H]3[C@@H](CCC4=CC(=O)CC[C@@]43C)[C@@H]1CC[C@@H]2O [testosterone]
V′max (apparent maximal rate of product formation) (CYP3A4/5 [5]): 1.3 ± 0.1 nmol/min/mg

CC[C@H]1OC(=O)[C@H](C)[C@@H](O[C@H]2C[C@@](C)(OC)[C@@H](O)[C@H](C)O2)[C@H](C)[C@@H](O[C@@H]2O[C@H](C)C[C@H](N(C)C)[C@H]2O)[C@](C)(O)C[C@@H](C)C(=O)[C@H](C)[C@@H](O)[C@]1(C)O [erythromycin]
IC50 (CYP3A4): 130000 nM

CC(C)C[C@H]1C(=O)N2CCC[C@H]2[C@]2(O)O[C@](NC(=O)[C@@H]3C=C4c5cccc6[nH]c(Br)c(c56)C[C@H]4N(C)C3)(C(C)C)C(=O)N12 [Bromocriptine]
IC50 (CYP3A4/5 [5]): 1200 ± 300 nM
IC50 (CYP3A4/5 [6]): 1400 ± 10 nM
